Values quoted from earlier work as cited in patent US20080152724A1, “TREATMENT OF PER[…] AN […] RELEASE IODINE” (priority 2006, published 2008).

Test system: test strains
Conditions: all of the test strains; after 30 seconds of exposure

N=C(NCCCCCCNC(=N)NC(=N)Nc1ccc(Cl)cc1)NC(=N)Nc1ccc(Cl)cc1.O=C(O)[C@H](O)[C@@H](O)[C@H](O)[C@H](O)CO.O=C(O)[C@H](O)[C@@H](O)[C@H](O)[C@H](O)CO [chlorhexidine gluconate]
bactericidal activity: residual bacteria were observed in most species
